In assay [1] the target is T1, Peptidyl-prolyl cis-trans isomerase FKBP4 (Homo sapiens, UniProt Q02790).
T1 sequence (Q02790 whole entry): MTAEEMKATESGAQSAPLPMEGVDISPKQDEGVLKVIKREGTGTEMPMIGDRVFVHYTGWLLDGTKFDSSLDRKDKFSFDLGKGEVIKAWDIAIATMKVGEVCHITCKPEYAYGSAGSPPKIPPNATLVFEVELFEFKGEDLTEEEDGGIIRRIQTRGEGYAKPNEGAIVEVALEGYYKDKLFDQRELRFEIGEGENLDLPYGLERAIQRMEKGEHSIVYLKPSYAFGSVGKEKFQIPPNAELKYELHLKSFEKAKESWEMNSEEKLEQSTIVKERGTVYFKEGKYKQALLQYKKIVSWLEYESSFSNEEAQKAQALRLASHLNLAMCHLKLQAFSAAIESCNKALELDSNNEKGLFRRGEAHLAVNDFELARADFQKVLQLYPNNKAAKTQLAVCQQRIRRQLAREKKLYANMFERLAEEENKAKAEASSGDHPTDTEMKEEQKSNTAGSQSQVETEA
The assay can be described thus: Binding affinity to FKBP52 FK1 domain by competitive fluorescence polarization assay.

The target in assay [2] is T2, Peptidyl-prolyl cis-trans isomerase FKBP5 (Homo sapiens, UniProt Q13451).
T2 sequence (Q13451 whole entry): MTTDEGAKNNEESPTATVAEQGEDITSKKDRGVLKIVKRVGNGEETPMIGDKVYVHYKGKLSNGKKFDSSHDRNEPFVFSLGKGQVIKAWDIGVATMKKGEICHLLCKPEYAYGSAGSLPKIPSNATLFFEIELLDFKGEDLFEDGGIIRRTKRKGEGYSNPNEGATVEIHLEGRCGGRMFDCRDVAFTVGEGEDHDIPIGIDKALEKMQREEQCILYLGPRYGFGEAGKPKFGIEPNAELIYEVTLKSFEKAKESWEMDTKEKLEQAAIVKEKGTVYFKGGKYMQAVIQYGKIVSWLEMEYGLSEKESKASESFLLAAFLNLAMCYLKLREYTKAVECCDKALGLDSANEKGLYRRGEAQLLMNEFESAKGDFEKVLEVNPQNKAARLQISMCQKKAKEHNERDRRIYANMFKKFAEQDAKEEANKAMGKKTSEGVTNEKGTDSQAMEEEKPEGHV
Put plainly: Binding affinity to FKBP51 FK1 domain by competitive fluorescence polarization assay.

Assay [3] addresses Peptidyl-prolyl cis-trans isomerase FKBP1A (Homo sapiens, UniProt P62942). The assay can be described thus: Binding affinity to FKBP12 by competitive fluorescence polarization assay.

A value given as a limit tells only on which side of the number the result lay.

Consider 23 compounds from ChEMBL document CHEMBL2057077, “Exploration of pipecolate sulfonamides as binders of the FK506-binding proteins 51 and 52” (J Med Chem, 2012).

Chain of Peptidyl-prolyl cis-trans isomerase FKBP1A (P62942 whole entry): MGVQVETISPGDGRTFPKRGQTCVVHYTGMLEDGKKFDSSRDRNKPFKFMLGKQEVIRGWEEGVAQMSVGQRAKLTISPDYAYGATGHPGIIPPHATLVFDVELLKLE

As for `COc1ccc(CC[C@@H](OC(=O)[C@@H]2CCCCN2S(=O)(=O)c2ccc3c(c2)CC(=O)N3)c2cccc(OCC(=O)O)c2)cc1OC`, the figures for the concentration for half-maximal inhibition (IC50) in assay [1] (read-out: IC50), in assay [2] (read-out: IC50) and in assay [3] (read-out: IC50) were greater than 100 µM, greater than 100 µM and 0.66 µM, respectively.

On to `O=C(OC(CCCc1cccnc1)CCCc1cccnc1)[C@@H]1CCCCN1S(=O)(=O)c1cc(Cl)c(O)c(Cl)c1`, for which the IC50 in assay [1] (read-out: IC50) turned out to be 15.1 µM; in assay [2] (read-out: IC50), 9.69 µM; in assay [3] (read-out: IC50), 0.87 µM.

Turning to `COc1ccc(OCCOC(=O)[C@@H]2CCCCN2S(=O)(=O)c2cc(Cl)cc(Cl)c2)cc1OC`, the IC50 in assay [1] (read-out: IC50), in assay [2] (read-out: IC50) and in assay [3] (read-out: IC50) was greater than 100 µM in each case.

With `COc1ccc(CC[C@@H](OC(=O)[C@@H]2CCCCN2S(=O)(=O)c2ccoc2)c2cccc(OCC(=O)O)c2)cc1OC`, the IC50 in assay [1] (read-out: IC50) is greater than 100 µM; in assay [2] (read-out: IC50), greater than 100 µM; in assay [3] (read-out: IC50) it was 10.1 µM.

For the compound `COc1ccc(CC[C@@H](OC(=O)[C@@H]2CCCCN2S(=O)(=O)c2cc(Cl)c(OC)c(Cl)c2)c2cccc(OCCN3CCOCC3)c2)cc1OC`, the 50% inhibitory concentration (IC50) in assay [1] (read-out: IC50), in assay [2] (read-out: IC50) and in assay [3] (read-out: IC50) was greater than 50 µM throughout.

With `COc1ccc(CC[C@@H](OC(=O)[C@@H]2CCCCN2S(=O)(=O)c2cccc(-c3ccnc(C)n3)c2)c2cccc(OCC(=O)O)c2)cc1OC`, the IC50 in assay [1] (read-out: IC50) is greater than 100 µM; in assay [2] (read-out: IC50) it was greater than 100 µM; in assay [3] (read-out: IC50), 8.1 µM.

Consider `COc1ccc(S(=O)(=O)N2CCCC[C@H]2C(=O)O[C@H](CCc2ccc(OC)c(OC)c2)c2cccc(OCC(=O)O)c2)cc1Cl`, for which the IC50 in assay [1] (read-out: IC50) turned out to be 40.3 µM; in assay [2] (read-out: IC50) it was 29.6 µM; in assay [3] (read-out: IC50), 0.6 µM.

Regarding `COc1ccc(CC[C@@H](OC(=O)[C@@H]2CCCCN2S(=O)(=O)c2cc(N)c3c(c2)CCO3)c2cccc(OCC(=O)O)c2)cc1OC`, the IC50 in assay [1] (read-out: IC50) was greater than 100 µM; in assay [2] (read-out: IC50) it was greater than 100 µM; in assay [3] (read-out: IC50) it was 2.57 µM.

Turning to `COc1ccc(CC[C@@H](OC(=O)[C@@H]2CCCCN2S(=O)(=O)c2cc(Br)cc(C(F)(F)F)c2)c2cccc(OCC(=O)O)c2)cc1OC`, the values for the IC50 in assay [1] (read-out: IC50), in assay [2] (read-out: IC50) and in assay [3] (read-out: IC50) were greater than 100 µM, greater than 100 µM and 2.4 µM, respectively.

On to `COc1ccc(CC[C@@H](NC(=O)[C@@H]2CCCCN2S(=O)(=O)c2cc(Cl)c(O)c(Cl)c2)c2cccc(OCC(=O)O)c2)cc1OC`, for which the IC50 in assay [1] (read-out: IC50), in assay [2] (read-out: IC50) and in assay [3] (read-out: IC50) was greater than 100 µM each time.

Take `COc1ccc(CC[C@@H](OC(=O)[C@@H]2CCCCN2S(=O)(=O)c2ccc3[nH]c(=O)sc3c2)c2cccc(OCCN3CCOCC3)c2)cc1OC`: the IC50 in assay [1] (read-out: IC50) is 3.41 µM; in assay [2] (read-out: IC50) it was 2.03 µM; in assay [3] (read-out: IC50), 0.003 µM.

In the case of `COc1ccc(CC[C@@H](OC(=O)[C@@H]2CCCCN2S(=O)(=O)c2ccc(OC)c(OC)c2)c2cccc(OCC(=O)O)c2)cc1OC`, the values for the IC50 in assay [1] (read-out: IC50), in assay [2] (read-out: IC50) and in assay [3] (read-out: IC50) were greater than 100 µM, greater than 100 µM and 7.6 µM, respectively.

Regarding `COc1ccc(CC[C@@H](OC(=O)[C@@H]2CCCCN2S(=O)(=O)c2ccc3[nH]c(=O)oc3c2)c2cccc(OCC(=O)O)c2)cc1OC`, the IC50 in assay [1] (read-out: IC50) is greater than 100 µM; in assay [2] (read-out: IC50) it was greater than 100 µM; in assay [3] (read-out: IC50), 0.75 µM.

Consider `COc1ccc(CC[C@@H](OC(=O)[C@@H]2CCCCN2S(=O)(=O)c2cccc(N)c2)c2cccc(OCC(=O)O)c2)cc1OC`, for which the IC50 in assay [1] (read-out: IC50) is greater than 100 µM; in assay [2] (read-out: IC50), 45.4 µM; in assay [3] (read-out: IC50), 1.9 µM.

Take `COc1ccc(CC[C@@H](OC(=O)[C@@H]2CCCCN2S(=O)(=O)c2cc(C(F)(F)F)cc(C(F)(F)F)c2)c2cccc(OCC(=O)O)c2)cc1OC`: the figures for the IC50 in assay [1] (read-out: IC50), in assay [2] (read-out: IC50) and in assay [3] (read-out: IC50) were greater than 100 µM, greater than 100 µM and 5.1 µM, respectively.

As for `COc1ccc(CC[C@@H](OC(=O)[C@@H]2CCCCN2S(=O)(=O)c2cccc(C#N)c2)c2cccc(OCC(=O)O)c2)cc1OC`, the IC50 in assay [1] (read-out: IC50) is 69.9 µM; in assay [2] (read-out: IC50), 28.5 µM; in assay [3] (read-out: IC50) it was 3.8 µM.

On to `COc1ccc(CC[C@@H](OC(=O)[C@@H]2CCCCN2S(=O)(=O)c2cccc(-c3ccncn3)c2)c2cccc(OCC(=O)O)c2)cc1OC`, for which the IC50 is greater than 100 µM in assay [1] (read-out: IC50), greater than 100 µM in assay [2] (read-out: IC50) and 9.1 µM in assay [3] (read-out: IC50).

Turning to `COC(=O)c1cc(C(=O)OC)cc(S(=O)(=O)N2CCCC[C@H]2C(=O)O[C@H](CCc2ccc(OC)c(OC)c2)c2cccc(OCC(=O)O)c2)c1`, the IC50 in assay [1] (read-out: IC50) was greater than 100 µM; in assay [2] (read-out: IC50) it was greater than 100 µM; in assay [3] (read-out: IC50), 4.5 µM.

With `COc1ccc(CC[C@@H](OC(=O)[C@@H]2CCCCN2S(=O)(=O)c2cc(OC)c(OC)c(C(=O)O)c2)c2cccc(OCC(=O)O)c2)cc1OC`, the IC50 entry in assay [1], in assay [2] and in assay [3] was “Not Active” each time.

As for `COc1ccc(CC[C@@H](NC(=O)[C@@H]2CCCCN2S(=O)(=O)c2ccc3[nH]c(=O)sc3c2)c2cccc(OCC(=O)O)c2)cc1OC`, the IC50 is greater than 100 µM in assay [1] (read-out: IC50), greater than 100 µM in assay [2] (read-out: IC50) and 1.4 µM in assay [3] (read-out: IC50).

As to `COc1ccc(CC[C@@H](OC(=O)[C@@H]2CCCCN2S(=O)(=O)c2cccc(F)c2)c2cccc(OCC(=O)O)c2)cc1OC`, the IC50 in assay [1] (read-out: IC50) turned out to be 84.5 µM; in assay [2] (read-out: IC50), 54 µM; in assay [3] (read-out: IC50), 1.09 µM.

For `COc1ccc(CC[C@@H](OC(=O)[C@@H]2CCCCN2S(=O)(=O)c2cccc(Br)c2)c2cccc(OCC(=O)O)c2)cc1OC`, the IC50 was 15.7 µM in assay [1] (read-out: IC50), 15.8 µM in assay [2] (read-out: IC50) and 0.32 µM in assay [3] (read-out: IC50).

Regarding `CCC(C)(C)C(=O)C(=O)N1CCCC[C@H]1C(=O)O[C@H](CCc1ccc(OC)c(OC)c1)c1cccc(OCC(=O)O)c1`, the IC50 in assay [1] (read-out: IC50) is 9.37 µM; in assay [2] (read-out: IC50), 6.3 µM; in assay [3] (read-out: IC50), 0.114 µM.
